The values below come from US5276217A, “Cyclic anti-tumor promoter compounds, compositions and methods for production and use” (University of Hawaii, priority 1992, dated 1994).

One assay has as its system tumor promotion. The conditions noted are these: prior art, in words, cited from earlier work.
Another assay deals with T1, ras farnesyl transferase (Bos taurus, UniProt P29702+P49355).
T1 construct: ras farnesyl transferase obtained from bovine brain; from tissue; host or cells: bovine brain
The assay can be described thus: inhibition of the farnesylation of ras-p21 by ras farnesyl transferase (3H-farnesylpyrophosphate incorporation). The format is biochemical, bovine. On the procedure:
This inhibitory activity is assayed using partially purified ras farnesyl transferase obtained from bovine brain by DEA gel filtration (J. Biol. Chem., 260, 15575, 1991) purified to display a single band in gel electrophoresis. […] This mixture is incubated at 37° C. for 20 minutes. The solutes are then precipitated with trichloroacetic acid (TCA) and the precipitate is filtered on a glass filter. The amount of farnesyl incorporated into the ras-p21 is then determined by liquid scintillation.

The structures appear in SMILES notation. Read-outs that look alike come from different tables or passages of the source.

In the case of `CCCCC[C@H](O)CC(=O)CCc1ccc(O)c(OC)c1` [Gingerol, (S)-5-Hydroxy-1-(4-hydroxy-3-methoxyphenyl)-3-decanone], in the assay with tumor promotion, the anti-tumor promoter activity result was “reported to be an inhibitor of tumor promotion”. As to `C=C(C)C1CC=C(C)CC1` (stereo not shown) [Limonene, 1-methyl-4-(methylethenyl) cylcohexene], the anti-tumor promoter activity entry with tumor promotion is listed as “has not been shown to have substantial anti-tumor promoter activity”. In the case of `CC1=CC=C(C(C)C)C(O)CC(C)=CCCC(C)=CCC1` (stereo not shown) [Sarcophytol A], the anti-tumor promoter activity result with tumor promotion was “have been shown to have anti-tumor promoter activity”; in the assay with tumor promotion (listed as sarcophytol A), “displays antitumor promoting properties”. For the same molecule, the IC50 against ras farnesyl transferase (37° C., 20 minutes, pH 7.5, 0.67 μM 3H-Farnesylpyrophosphate, 4 μg ras-p21) was > 1000 µM. For the same molecule, the “inhibition of the farnesylation of ras-p21, in words” value at ras farnesyl transferase (conclusion from Example 7) is recorded as “does not appear to be an effective inhibitor”.

For `C/C1=C\C=C(\C(C)C)[C@@H](O)[C@H](O)/C(C)=C/CC/C(C)=C/CC1` [Sarcophytol B], the anti-tumor promoter activity result with tumor promotion is “have been shown to have anti-tumor promoter activity”.
